From patent publication US4990499A, “Anti-herpes simplex virus activity of 5-alkoxymethyl-2'-deoxycytidimes and their 5-monophosphates” (priority 1989, dated 1991)

Legend:
E. coli DNA Polymerase 1 = E. coli DNA Polymerase 1 (Escherichia coli, UniProt P00582); test: In vitro DNA synthesis by E. coli DNA polymerase 1 ([3H]dAMP incorporation); format: biochemical
Protocol: ^a Enzymatic assays were carried out with 1 unit of Sigma E. coli DNA
Polymerase 1. dTTP, dGTP and [^3 H] dATP were non limiting (5 μM).
^b Values obtained are net after subtracting "0" samples which did no
^c Amount of NMeMMdCTP used with each concentration of dCTP was 0.625

HSV-1 DNA Polymerase = HSV-1 DNA Polymerase (Human herpesvirus 1, UniProt P04293); test: In vitro DNA synthesis by HSV-1 DNA polymerase ([3H]dAMP incorporation); format: biochemical, Herpes simplex virus type 1; details: HSV-1 DNA polymerase
Chain of HSV-1 DNA Polymerase (P04293 whole entry): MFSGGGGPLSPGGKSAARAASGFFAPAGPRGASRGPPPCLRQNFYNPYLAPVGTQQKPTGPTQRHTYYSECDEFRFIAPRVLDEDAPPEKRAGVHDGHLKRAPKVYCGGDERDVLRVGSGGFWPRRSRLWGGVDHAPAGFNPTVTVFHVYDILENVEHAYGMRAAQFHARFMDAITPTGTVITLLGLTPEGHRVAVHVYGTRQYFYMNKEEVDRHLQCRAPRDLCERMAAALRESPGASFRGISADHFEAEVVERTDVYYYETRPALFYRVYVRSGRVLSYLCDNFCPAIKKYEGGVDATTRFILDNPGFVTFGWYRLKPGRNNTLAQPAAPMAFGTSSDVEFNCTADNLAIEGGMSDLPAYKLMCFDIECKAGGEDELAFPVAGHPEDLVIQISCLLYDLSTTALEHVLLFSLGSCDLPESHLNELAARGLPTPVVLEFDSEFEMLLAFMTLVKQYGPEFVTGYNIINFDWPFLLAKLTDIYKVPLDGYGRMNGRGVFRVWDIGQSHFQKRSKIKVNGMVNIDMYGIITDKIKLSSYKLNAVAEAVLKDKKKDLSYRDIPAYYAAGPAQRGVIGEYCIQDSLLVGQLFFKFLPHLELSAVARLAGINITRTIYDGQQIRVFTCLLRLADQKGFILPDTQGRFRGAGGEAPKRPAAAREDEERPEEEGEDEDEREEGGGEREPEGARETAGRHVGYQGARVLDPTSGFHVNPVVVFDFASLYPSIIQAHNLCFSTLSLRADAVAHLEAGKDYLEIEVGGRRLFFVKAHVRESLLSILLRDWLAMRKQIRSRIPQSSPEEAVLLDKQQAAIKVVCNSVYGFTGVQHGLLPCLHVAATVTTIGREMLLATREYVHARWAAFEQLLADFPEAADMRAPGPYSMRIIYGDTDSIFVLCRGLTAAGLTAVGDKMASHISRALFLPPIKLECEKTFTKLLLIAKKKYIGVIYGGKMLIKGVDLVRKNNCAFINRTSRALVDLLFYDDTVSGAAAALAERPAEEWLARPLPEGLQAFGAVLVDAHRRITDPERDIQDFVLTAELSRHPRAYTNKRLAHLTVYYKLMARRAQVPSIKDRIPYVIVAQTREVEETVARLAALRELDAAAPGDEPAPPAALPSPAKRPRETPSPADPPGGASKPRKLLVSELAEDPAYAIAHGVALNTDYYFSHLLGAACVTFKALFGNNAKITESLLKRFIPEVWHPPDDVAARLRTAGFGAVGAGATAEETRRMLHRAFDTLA
Protocol: The relative in vitro DNA synthesis by HSV-1 DNA Polymerase using dCTP or MMdCTP as the rate limiting substrate was determined. The synthesis was followed by assaying an incorporation of tritium labelled dAMP.
+ unlabelled dNTP concentration 10 μM
++ Radio labelled [^3 H]dAMP conc 0.2 μM
*One hundred percent activity represents 27355 cpm of [^3 H]dAMP
(§1) The number of pmoles of [^3 H] dAMP incorporated into control samples (`O`MMdCTP) was subtracted from pmoles of test samples. Other nucleotides,dATP, dTTP and dGTP were in excess (10 μm). Each assay was performed in triplicate.
(§2) ^+ unlabeled dNTP concentration (10 μM).
(§3) ^++ 0.2 μM of [^3 H]dATP was used in each assay.

[1] = target: T1, human DNA polymerase alpha (Homo sapiens, UniProt P09884); test: In vitro DNA synthesis by human DNA polymerase alpha ([3H]dAMP incorporation); format: biochemical; details: for incorporation into DNA / substrate: Human α-DNA polymerase
T1 sequence (P09884 1-1462): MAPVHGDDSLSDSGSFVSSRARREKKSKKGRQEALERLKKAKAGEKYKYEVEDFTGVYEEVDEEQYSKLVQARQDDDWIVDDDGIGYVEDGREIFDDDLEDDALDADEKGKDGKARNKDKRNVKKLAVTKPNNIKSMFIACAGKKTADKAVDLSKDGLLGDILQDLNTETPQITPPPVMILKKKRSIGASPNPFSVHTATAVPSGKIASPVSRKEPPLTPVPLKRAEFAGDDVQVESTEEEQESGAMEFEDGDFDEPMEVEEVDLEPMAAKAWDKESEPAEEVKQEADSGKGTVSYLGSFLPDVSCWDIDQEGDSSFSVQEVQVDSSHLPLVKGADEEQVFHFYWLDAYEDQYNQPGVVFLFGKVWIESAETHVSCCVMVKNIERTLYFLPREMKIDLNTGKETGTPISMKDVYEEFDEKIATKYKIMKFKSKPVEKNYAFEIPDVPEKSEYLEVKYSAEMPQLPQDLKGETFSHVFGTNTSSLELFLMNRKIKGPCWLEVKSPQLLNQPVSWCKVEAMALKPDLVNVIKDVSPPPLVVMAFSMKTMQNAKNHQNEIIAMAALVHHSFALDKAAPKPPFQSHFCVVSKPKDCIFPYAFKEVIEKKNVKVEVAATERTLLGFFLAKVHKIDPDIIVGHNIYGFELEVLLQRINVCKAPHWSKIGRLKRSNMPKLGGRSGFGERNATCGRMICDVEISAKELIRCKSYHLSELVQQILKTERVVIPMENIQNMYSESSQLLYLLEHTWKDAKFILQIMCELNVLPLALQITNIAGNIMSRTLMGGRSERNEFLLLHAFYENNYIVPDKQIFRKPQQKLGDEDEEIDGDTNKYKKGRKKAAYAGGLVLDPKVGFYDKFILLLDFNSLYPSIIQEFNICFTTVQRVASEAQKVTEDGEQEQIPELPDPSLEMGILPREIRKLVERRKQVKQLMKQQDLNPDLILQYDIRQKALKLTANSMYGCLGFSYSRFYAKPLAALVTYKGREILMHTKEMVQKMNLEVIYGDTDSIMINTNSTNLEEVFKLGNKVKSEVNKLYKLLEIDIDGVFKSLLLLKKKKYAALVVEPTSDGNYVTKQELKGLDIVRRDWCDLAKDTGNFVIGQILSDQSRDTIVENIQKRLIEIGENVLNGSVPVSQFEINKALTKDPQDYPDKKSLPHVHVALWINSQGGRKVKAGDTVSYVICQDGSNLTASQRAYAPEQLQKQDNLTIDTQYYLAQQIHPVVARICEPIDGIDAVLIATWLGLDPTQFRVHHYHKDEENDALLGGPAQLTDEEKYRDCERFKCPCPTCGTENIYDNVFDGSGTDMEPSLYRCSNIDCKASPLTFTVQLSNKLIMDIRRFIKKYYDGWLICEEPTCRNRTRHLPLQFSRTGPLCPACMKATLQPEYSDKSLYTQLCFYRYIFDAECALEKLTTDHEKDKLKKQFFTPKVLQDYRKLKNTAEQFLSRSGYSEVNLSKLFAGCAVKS
Protocol: A comparison of in vitro DNA synthesis by viral and cellular DNA polymerases with MMdCTP as an alternative substrate. The results are shown graphically in FIG. 14 and compare HSV-1 DNA polymerase and human DNA polymerase alpha activity.
as §1, §2, §3

[2] = system: Nc1ccn([C@H]2C[C@H](O)[C@@H](COP(=O)(O)OP(=O)(O)OP(=O)(O)O)O2)c(=O)n1; test: Kinetic analysis / inhibition of HSV-1 DNA polymerase; format: biochemical; details: other: dCTP
Protocol: The inhibition of HSV-1 and human DNA polymerase alpha by MMdCTP was studied and the results shown graphically in FIG. 16. Assay conditions were specific for each enzyme and each assay was performed in triplicate.

[3] = nucleotide 0.039 μM (mixture: dCTP at this concentration + N-MeMMdCTP 0.625 μM)
[4] = nucleotide 0.078 μM (mixture: dCTP at this concentration + N-MeMMdCTP 0.625 μM)
[5] = nucleotide 0.156 μM (mixture: dCTP at this concentration + N-MeMMdCTP 0.625 μM)
[6] = nucleotide 0.312 μM (mixture: dCTP at this concentration + N-MeMMdCTP 0.625 μM)
[7] = nucleotide 0.625 μM (mixture: dCTP at this concentration + N-MeMMdCTP 0.625 μM)
[8] = nucleotide 1.25 μM (mixture: dCTP at this concentration + N-MeMMdCTP 0.625 μM)
[9] = nucleotide 2.50 μM (mixture: dCTP at this concentration + N-MeMMdCTP 0.625 μM)
[10] = nucleotide 5.0 μM (mixture: dCTP at this concentration + N-MeMMdCTP 0.625 μM)

Chain of E. coli DNA Polymerase 1 (P00582 whole entry): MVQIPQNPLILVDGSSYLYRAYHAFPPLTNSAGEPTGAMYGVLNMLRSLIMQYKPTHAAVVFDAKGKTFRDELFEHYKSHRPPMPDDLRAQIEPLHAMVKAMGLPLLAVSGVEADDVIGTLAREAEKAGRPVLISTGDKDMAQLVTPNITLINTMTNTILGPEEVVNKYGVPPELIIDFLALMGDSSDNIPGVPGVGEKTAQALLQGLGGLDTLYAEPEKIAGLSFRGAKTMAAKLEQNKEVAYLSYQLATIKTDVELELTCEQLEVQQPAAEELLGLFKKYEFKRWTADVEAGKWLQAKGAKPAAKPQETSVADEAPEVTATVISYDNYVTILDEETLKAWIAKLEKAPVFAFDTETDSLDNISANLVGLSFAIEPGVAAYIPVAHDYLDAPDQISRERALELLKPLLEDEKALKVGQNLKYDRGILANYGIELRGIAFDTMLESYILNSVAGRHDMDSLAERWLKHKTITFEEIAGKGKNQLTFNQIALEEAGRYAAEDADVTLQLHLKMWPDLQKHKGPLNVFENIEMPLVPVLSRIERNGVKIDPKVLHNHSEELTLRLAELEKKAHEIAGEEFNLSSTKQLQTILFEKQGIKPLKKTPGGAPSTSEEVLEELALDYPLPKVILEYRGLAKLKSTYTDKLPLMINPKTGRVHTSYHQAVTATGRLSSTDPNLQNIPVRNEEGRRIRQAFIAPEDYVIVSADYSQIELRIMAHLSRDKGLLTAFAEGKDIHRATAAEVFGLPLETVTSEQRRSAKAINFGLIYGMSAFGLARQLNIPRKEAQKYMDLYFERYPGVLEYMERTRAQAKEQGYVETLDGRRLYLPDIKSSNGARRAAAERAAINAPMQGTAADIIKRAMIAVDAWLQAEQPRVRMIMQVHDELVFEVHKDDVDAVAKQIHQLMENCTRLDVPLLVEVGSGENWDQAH

Row | Compound | interference with incorporation of dCTP into DNA (E. coli DNA Polymerase 1; E. coli DNA polymerase) | substrate for DNA polymerase (E. coli DNA Polymerase 1; E. coli DNA polymerase) | cpm [^3 H]dAMP incorporated (E. coli DNA Polymerase 1; [3]) [cpm] | cpm [^3 H]dAMP incorporated (E. coli DNA Polymerase 1; [4]) [cpm] | cpm [^3 H]dAMP incorporated (E. coli DNA Polymerase 1; [5]) [cpm] | cpm [^3 H]dAMP incorporated (E. coli DNA Polymerase 1; [6]) [cpm] | cpm [^3 H]dAMP incorporated (E. coli DNA Polymerase 1; [7]) [cpm] | cpm [^3 H]dAMP incorporated (E. coli DNA Polymerase 1; [8]) [cpm] | cpm [^3 H]dAMP incorporated (E. coli DNA Polymerase 1; [9]) [cpm] | cpm [^3 H]dAMP incorporated (E. coli DNA Polymerase 1; [10]) [cpm] | incorporation into DNA / substrate (HSV-1 DNA Polymerase) | incorporation into DNA / substrate [1] | [^3 H]dAMP incorporation representing 100% activity (HSV-1 DNA Polymerase; 10 μM dCTP) [cpm] | [^3 H]dAMP incorporation representing 100% activity ([1]; 10 μM dCTP, Human DNA polymerase) [cpm] | Km [2] [µM]
1 | CNc1nc(=O)n([C@H]2C[C@H](O)[C@@H](COP(=O)(O)OP(=O)(O)OP(=O)(O)O)O2)cc1COC [N-MeMMdCTP] | did not interfere with incorporation of dCTP into DNA | did not serve as a substrate | -18 | -7 | 3 | -9 | 3 | -20 | -17 | -16 | not incorporated into DNA | not incorporated into DNA |  |  | 
2 | Nc1ccn([C@H]2C[C@H](O)[C@@H](COP(=O)(O)OP(=O)(O)OP(=O)(O)O)O2)c(=O)n1 [dCTP, 2'-deoxycytidine triphosphate, reference compound] |  |  | 35 | 118 | 216 | 527 | 1171 | 1603 | 1554 | 2032 | excellent substrate for DNA synthesis | excellent substrate for DNA synthesis | 27355 | 4059 | 
3 | HSV-1 DNA Polymerase (Human alphaherpesvirus 1 strain 17) |  |  |  |  |  |  |  |  |  |  |  |  |  |  | 0.15
